Assay results from patent publication US5041567A, “Antibacterial monic acid derivatives” (Beecham Group plc, priority 1982, dated 1991).
Converted amounts (≈) assume the structure as drawn. Like-named read-outs stand apart in the source and are kept apart here.

Assays:
M. suipneumoniae Str. 11 = experiment: MIC against mycoplasma in vitro; type: cell-based; conditions: Mesomycoplasma hyopneumoniae
[1] = tested on: M. suipneumoniae J2206/183^b; experiment: MIC against mycoplasma in vitro; type: cell-based; conditions: Mesomycoplasma hyopneumoniae, 144 h
[2] = tested on: M. suipneumoniae PW/C/210; experiment: MIC against mycoplasma in vitro; type: cell-based; conditions: Mesomycoplasma hyopneumoniae, 144 h
M. suipneumoniae LABER = experiment: MIC against mycoplasma in vitro; type: cell-based; conditions: Mesomycoplasma hyopneumoniae, 144 h
M. hyorhinis ATCC 25021 = experiment: MIC against mycoplasma in vitro; type: cell-based; conditions: Mesomycoplasma hyorhinis, ATCC25021, 144 h
[3] = tested on: M. hyosynoviae ATCC 25591; experiment: MIC against mycoplasma in vitro; type: cell-based; conditions: 144 h
M. bovis NCTC 10131 = experiment: microbe, parasite or virus in culture; type: cell-based; conditions: NCTC10131, 144 h
M. dispar NCTC 10125 = experiment: MIC against mycoplasma in vitro; type: cell-based; conditions: 144 h
E. coli NCTC 10418 = experiment: MIC against human bacteria in vitro; type: cell-based; conditions: Escherichia coli
P. mirabilis 889 = experiment: MIC against human bacteria in vitro; type: cell-based
K. aerogenes A = experiment: MIC against human bacteria in vitro; type: cell-based; conditions: Klebsiella aerogenes; K. aerogenes A; 5% chocolated horse blood agar, 18 hours; read-out: MIC
[4] = tested on: Haemophilus influenzae Q1; experiment: MIC against human bacteria in vitro; type: cell-based; conditions: Haemophilus influenzae Q1; 5% chocolated horse blood agar, 18 hours; read-out: MIC
[5] = tested on: Neisseria catarrhalis 1502; experiment: MIC against human bacteria in vitro; type: cell-based
Bacillus subtilis 6633 = experiment: MIC against human bacteria in vitro; type: cell-based
[6] = tested on: Corynebacterium xerosis 9755; experiment: MIC against human bacteria in vitro; type: cell-based; conditions: Corynebacterium xerosis 9755; 5% chocolated horse blood agar, 18 hours; read-out: MIC
Staph. aureus Oxford = experiment: MIC against human bacteria in vitro; type: cell-based; conditions: Staphylococcus aureus; Staph. aureus Oxford; 5% chocolated horse blood agar, 18 hours; read-out: MIC
Strep. faecalis I = experiment: MIC against human bacteria in vitro; type: cell-based; conditions: Enterococcus faecalis; Strep. faecalis I; 5% chocolated horse blood agar, 18 hours; read-out: MIC
Past. multocida PA1 = experiment: MIC against veterinary bacteria in vitro; conditions: Pasteurella multocida, PA1, 18 h
Description: (§1) The activity of the compounds of the Examples against various veterinarily important bacteria, was assayed in vitro using two-fold serial dilutions in Diagnostic Sensitivity Test Agar inoculated with 10^4 organisms.

Past. haemolytica PA5 = experiment: MIC against veterinary bacteria in vitro; conditions: Mannheimia haemolytica, PA5, 18 h
Description: as §1

[7] = tested on: Corynebacterium pyogenes CY1; experiment: MIC against veterinary bacteria in vitro; conditions: CY1, 18 h
Description: as §1

[8] = tested on: Staph. aureus B4 (pen. resistant); experiment: MIC against veterinary bacteria in vitro; conditions: Staphylococcus aureus, 18 h
Description: as §1

Strep. uberis SPU1 = experiment: MIC against veterinary bacteria in vitro; conditions: Streptococcus uberis, SPU1, 18 h
Description: as §1

Strep. dysgalactiae SPD1 = experiment: MIC against veterinary bacteria in vitro; conditions: Streptococcus dysgalactiae, SPD1, 18 h
Description: as §1

[9] = tested on: Strep. pyogenes R80/421-A; experiment: MIC against human bacteria in vitro; type: cell-based; conditions: Streptococcus pyogenes; Strep. pyogenes R80/421-A; 5% chocolated horse blood agar, 18 hours; read-out: MIC
[10] = 144 h, M. suipneumoniae Str. 11, 6 days, 37° C., read-out: MIC
[11] = M. suipneumoniae J2206/183^b, 6 days, 37° C., read-out: MIC
[12] = M. suipneumoniae PW/C/210, 6 days, 37° C., read-out: MIC
[13] = M. suipneumoniae LABER, 6 days, 37° C., read-out: MIC
[14] = M. hyorhinis ATCC 25021, 6 days, 37° C., read-out: MIC
[15] = NCTC10418, E. coli NCTC 10418, agar with 5% chocolated horse blood, 18 hours, 37° C., read-out: MIC
[16] = Proteus mirabilis, P. mirabilis 889, 5% chocolated horse blood agar, 18 hours, read-out: MIC
[17] = Bacillus subtilis 6633, 5% chocolated horse blood agar, 18 hours, read-out: MIC
[18] = M. hyosynoviae ATCC 25591, 6 days, 37° C., read-out: MIC
[19] = Neisseria catarrhalis 1502, 5% chocolated horse blood agar, 18 hours, read-out: MIC

For `C/C(=C\c1ncc(-c2cccc(C#N)c2)o1)C[C@@H]1OC[C@H](C[C@@H]2O[C@H]2[C@@H](C)[C@H](C)O)[C@@H](O)[C@H]1O` [Example 5, 5-m-cyanophenyl-2-(1-normon-2-yl)oxazole A], the MIC (M. suipneumoniae Str. 11; [10]) was 0.05 µg/mL (≈ 0.107 µM), the MIC [1, 11] was 0.1 µg/mL (≈ 0.213 µM) and the MIC [2, 12] was 0.05 µg/mL (≈ 0.107 µM). It also gave an MIC (M. suipneumoniae LABER; [13]) of 0.05 µg/mL (≈ 0.107 µM), an MIC (M. hyorhinis ATCC 25021; [14]) of 0.05 µg/mL (≈ 0.107 µM) and an MIC [3] of 0.25 µg/mL (≈ 0.534 µM). For the same compound, the MIC (M. bovis NCTC 10131) was at most 0.01 µg/mL, the MIC (M. dispar NCTC 10125) was 0.025 µg/mL (≈ 0.0534 µM) and the MIC (E. coli NCTC 10418; [15]) was over 50 µg/mL. It also gave an MIC (P. mirabilis 889; [16]) of over 50 µg/mL, an MIC (K. aerogenes A) of over 50 µg/mL and an MIC [4] of 1.2 µg/mL (≈ 2.56 µM). For the same compound, the MIC ([5]; Neisseria, 1502, 18 h) was 5 µg/mL (≈ 10.7 µM), the MIC (Bacillus subtilis 6633; [17]) was 1.2 µg/mL (≈ 2.56 µM) and the MIC [6] was over 50 µg/mL. For the same compound, the MIC (Staph. aureus Oxford) was 1.2 µg/mL (≈ 2.56 µM), the MIC (Strep. faecalis I) was 50 µg/mL (≈ 107 µM) and the MIC (Past. multocida PA1) was 5 µg/mL (≈ 10.7 µM). It also gave an MIC (Past. haemolytica PA5) of 40 µg/mL (≈ 85.4 µM), an MIC [7] of 80 µg/mL (≈ 171 µM) and an MIC [8] of 1.25 µg/mL (≈ 2.67 µM). The MIC (Strep. uberis SPU1) was 0.07 µg/mL (≈ 0.149 µM) and the MIC (Strep. dysgalactiae SPD1) was 0.312 µg/mL (≈ 0.666 µM).
For `C/C(=C\c1ncc(-c2cccc([N+](=O)[O-])c2)o1)C[C@@H]1OC[C@H](C[C@@H]2O[C@H]2[C@@H](C)[C@H](C)O)[C@@H](O)[C@H]1O` [Example 6, 5-m-nitrophenyl-2-(1-normon-2-yl)oxazole A], the MIC (M. suipneumoniae Str. 11; STR.11, 144 h) was 0.05 µg/mL (≈ 0.102 µM), the MIC [1] was 0.05 µg/mL (≈ 0.102 µM) and the MIC [2] was 0.025 µg/mL (≈ 0.0512 µM). The MIC (M. suipneumoniae LABER) was 0.05 µg/mL (≈ 0.102 µM), the MIC (M. hyorhinis ATCC 25021) was 0.025 µg/mL (≈ 0.0512 µM) and the MIC [3, 18] was 0.5 µg/mL (≈ 1.02 µM). For the same compound, the MIC (M. bovis NCTC 10131) was 0.025 µg/mL (≈ 0.0512 µM), the MIC (M. dispar NCTC 10125) was 0.025 µg/mL (≈ 0.0512 µM) and the MIC (E. coli NCTC 10418; [15]) was over 128 µg/mL. The MIC (P. mirabilis 889; [16]) was over 128 µg/mL, the MIC (K. aerogenes A) was over 128 µg/mL and the MIC [4] was 2 µg/mL (≈ 4.09 µM). It also gave an MIC [5, 19] of 4 µg/mL (≈ 8.19 µM), an MIC (Bacillus subtilis 6633; [17]) of 2 µg/mL (≈ 4.09 µM) and an MIC [6] of over 128 µg/mL. The MIC (Staph. aureus Oxford) was 8 µg/mL (≈ 16.4 µM), the MIC (Strep. faecalis I) was over 128 µg/mL and the MIC [9] was 4 µg/mL (≈ 8.19 µM). For the same compound, the MIC (Past. multocida PA1) was 10 µg/mL (≈ 20.5 µM), the MIC (Past. haemolytica PA5) was 80 µg/mL (≈ 164 µM) and the MIC [7] was over 80 µg/mL. The MIC (Strep. uberis SPU1) was 0.07 µg/mL (≈ 0.143 µM) and the MIC (Strep. dysgalactiae SPD1) was 0.625 µg/mL (≈ 1.28 µM).
For `C/C(=C\c1ncc(-c2ccc(CO)cc2)o1)C[C@@H]1OC[C@H](C[C@@H]2O[C@H]2[C@@H](C)[C@H](C)O)[C@@H](O)[C@H]1O` [Example 13, 5-p-Hydroxymethylphenyl-2-(1-normon-2-yl) oxazole A], the MIC (M. suipneumoniae Str. 11; [10]) was 0.1 µg/mL (≈ 0.211 µM), the MIC [1, 11] was 0.25 µg/mL (≈ 0.528 µM) and the MIC [2, 12] was 0.1 µg/mL (≈ 0.211 µM). It also gave an MIC (M. hyorhinis ATCC 25021) of 0.1 µg/mL (≈ 0.211 µM), an MIC [3, 18] of 0.25 µg/mL (≈ 0.528 µM) and an MIC (M. bovis NCTC 10131) of at most 0.01 µg/mL. For the same compound, the MIC (M. dispar NCTC 10125) was 0.05 µg/mL (≈ 0.106 µM), the MIC (E. coli NCTC 10418; [15]) was over 128 µg/mL and the MIC (P. mirabilis 889; [16]) was over 128 µg/mL. It also gave an MIC (K. aerogenes A) of over 128 µg/mL, an MIC [4] of 0.5 µg/mL (≈ 1.06 µM) and an MIC [5, 19] of 4 µg/mL (≈ 8.45 µM). The MIC (Bacillus subtilis 6633; Bacillus subtilis, 6633, 18 h) was 1 µg/mL (≈ 2.11 µM), the MIC [6] was 64 µg/mL (≈ 135 µM) and the MIC (Staph. aureus Oxford) was 4 µg/mL (≈ 8.45 µM). The MIC (Strep. faecalis I) was over 128 µg/mL, the MIC [9] was 4 µg/mL (≈ 8.45 µM) and the MIC (Past. multocida PA1) was 2.5 µg/mL (≈ 5.28 µM). It also gave an MIC (Past. haemolytica PA5) of 40 µg/mL (≈ 84.5 µM), an MIC [7] of over 80 µg/mL and an MIC [8] of 1.25 µg/mL (≈ 2.64 µM). The MIC (Strep. uberis SPU1) was 0.312 µg/mL (≈ 0.659 µM) and the MIC (Strep. dysgalactiae SPD1) was 0.625 µg/mL (≈ 1.32 µM).
`C/C(=C\c1nc(C)c(-c2ccccc2)o1)C[C@@H]1OC[C@H](C[C@@H]2O[C@H]2[C@@H](C)[C@H](C)O)[C@@H](O)[C@H]1O` [Example 40, 4-Methyl-2-(1-normon-2-yl)-5-phenyloxazole A] gave an MIC (M. suipneumoniae Str. 11; [10]) of over 10 µg/mL, an MIC [1, 11] of over 10 µg/mL and an MIC [2, 12] of over 10 µg/mL. The MIC (M. suipneumoniae LABER; [13]) was over 10 µg/mL, the MIC (M. hyorhinis ATCC 25021; [14]) was over 10 µg/mL and the MIC [3, 18] was over 10 µg/mL. It also gave an MIC (M. bovis NCTC 10131) of 5 µg/mL (≈ 10.9 µM), an MIC (M. dispar NCTC 10125; M. dispar NCTC 10125, 6 days, 37° C., read-out: MIC) of over 10 µg/mL and an MIC (E. coli NCTC 10418; NCTC10418, 18 h) of over 100 µg/mL. For the same compound, the MIC (P. mirabilis 889; Proteus mirabilis, 889, 18 h) was over 100 µg/mL, the MIC (K. aerogenes A) was over 100 µg/mL and the MIC [4] was 50 µg/mL (≈ 109 µM). For the same compound, the MIC [5, 19] was 50 µg/mL (≈ 109 µM), the MIC (Bacillus subtilis 6633; [17]) was 100 µg/mL (≈ 219 µM) and the MIC [6] was over 100 µg/mL. The MIC (Staph. aureus Oxford) was 100 µg/mL (≈ 219 µM), the MIC (Strep. faecalis I) was over 100 µg/mL and the MIC (Past. multocida PA1) was 80 µg/mL (≈ 175 µM). For the same compound, the MIC (Past. haemolytica PA5) was over 80 µg/mL, the MIC [7] was 80 µg/mL (≈ 175 µM) and the MIC [8] was 80 µg/mL (≈ 175 µM). For the same compound, the MIC (Strep. uberis SPU1) was 40 µg/mL (≈ 87.4 µM) and the MIC (Strep. dysgalactiae SPD1) was over 80 µg/mL.
